We go through six molecules from ChEMBL document CHEMBL1131951, “Sialidase inhibitors related to zanamivir: synthesis and biological evaluation of 4H-pyran 6-ether and ketone” (Bioorg Med Chem Lett, 1999).

One assay has as its system Influenza A virus. Put plainly: Inhibitory activity against sialidase of influenza A. Format: functional, organism-based.
Another assay deals with Influenza B virus. As to the kind of experiment: Inhibitory activity against sialidase of influenza B. Format: functional, organism-based.

The IC50 is the concentration needed to halve the response being measured. Low readings indicate inhibition by little substance, high ones a need for much substance.

Turning to `CCC(CC)C(=O)[C@@H]1OC(C(=O)O)=C[C@H](N)[C@H]1NC(C)=O`, the 50% inhibitory concentration (IC50) with Influenza A virus is 2 nM; in the assay with Influenza B virus, 470 nM.
In the same order, the values of `CCC(CC)O[C@@H]1C=C(C(=O)O)C[C@H](N)[C@H]1NC(C)=O` [OSELTAMIVIR CARBOXYLATE] are 2 nM and 32 nM.
The matching figures for `CC(=O)N[C@H]1[C@H]([C@H](O)[C@H](O)CO)OC(C(=O)O)=C[C@@H]1NC(=N)N` [ZANAMIVIR]: 5 nM and 4 nM.
In the same order, the values of `CCN(CC)C(=O)[C@@H]1OC(C(=O)O)=C[C@H](N)[C@H]1NC(C)=O` are 3 nM and 360 nM.
As for `CCC(CC)C(O)[C@@H]1OC(C(=O)O)=C[C@H](N)[C@H]1NC(C)=O` (some centres not stated), the IC50 with Influenza A virus was 39 nM; in the assay on Influenza B virus, 7400 nM.
The matching figures for `CCC(CC)O[C@@H]1OC(C(=O)O)=C[C@H](N)[C@H]1NC(C)=O`: 770 nM and 42000 nM.
